Measured values: article PMC4984914 (British Journal of Cancer, 2016)

Columns and labels:
Format in all cases: in vivo
[1] = Preclinical plasma level of cleavage product 12ADT-Asp after dosing; conditions: mice; any time after dosing of mipsagargin
[2] = as above; conditions: rats; any time after dosing of mipsagargin
[3] = as above; conditions: monkeys; any time after dosing of mipsagargin

Measured: Level of cleavage product 12ADT-Asp in plasma

C/C=C(/C)C(=O)O[C@H]1C(C)=C2[C@H]([C@@H]1OC(=O)CCCCCCC)[C@@](C)(OC(C)=O)C[C@H](OC(=O)CCCCCCCCCCCNC(=O)C[C@H](N)C(=O)O)[C@@]1(O)[C@H]2OC(=O)[C@@]1(C)O [12ADT-Asp]
virtually undetectable: [1] | [2] | [3]
